Data: patent US20100204129A1, “USE OF A PEPTIDE AS A THERAPEUTIC AGENT” (priority 2008, published 2010)
Non-standard residues stand in square brackets, D forms with d. Residues, ends and D or L forms follow the SMILES beside them.

Tested on: drug-resistant Mycobacterium tuberculosis
Settings: 5 micrograms per ml

With CC(C)C[C@H](NC(=O)[C@H](CC(C)C)NC(=O)[C@@H](Cc1c[nH]c2ccccc12)NC(=O)[C@H](Cc1ccccc1)NC(=O)[C@@H](Cc1c[nH]c2ccccc12)NC(=O)[C@H](CCC(N)=O)NC(=O)[C@H](CCC(N)=O)NC(=O)[C@@H]1CCCN1C(=O)[C@H](CCCCN)NC(=O)[C@@H]1CCCN1C(=O)[C@@H](CCCNC(=N)N)NC(=O)[C@@H]1CCCN1C(=O)CNC(=O)[C@H](CC(C)C)NC(=O)[C@H](CC(C)C)NC(=O)[C@H](Cc1ccc(O)cc1)NC(=O)CNC(=O)[C@H](C)NC(=O)[C@H](CO)NC(=O)[C@H](CC(N)=O)NC(=O)[C@H](CC(C)C)NC(=O)[C@@H](NC(=O)[C@H](Cc1c[nH]c2ccccc12)NC(=O)CN)[C@@H](C)O)C(N)=O [Spantide-I, Gly-Trp-Thr-Leu-Asn-Ser-Ala-Gly-Tyr-Leu-Leu-Gly-Pro-D-Arg-Pro-Lys-Pro-Gln-Gln-D-Trp-Phe-D-Trp-Leu-Leu-NH2] (H-GWTLNSAGYLLGP[dR]PKPQQ[dW]F[dW]LL-NH2) the “% inhibition” value was 100.0%.
